Measurements reported in patent publication US10919859B2, “Benzylaminopyridylcyclopropanecarboxylic acids, pharmaceutical compositions and uses thereof” (Boehringer Ingelheim International GmbH, priority 2017, dated 2021).
In brackets after ≈: the same amount, converted by molar mass.

What was measured:
human GPR40 receptor = human GPR40 receptor (Homo sapiens (Human), UniProt O14842); assay: IP1 accumulation measurements using the IPOne assay system; assay type: cell-based; settings: 1321N1 cells stably expressing human GPR40, 1 h at 37° C.
Method: IP1 accumulation measurements using the IPOne assay system—1321N1 cells stably expressing human GPR40 receptor (Euroscreen, Belgium) are seeded 24 h before the assay in white 384-well plates in culture medium containing 10% FCS, 1% Na-Pyruvate and 400 μg/mL G418. IP1 is assayed according to the manufacturer's description (Cisbio Bioassays, France). In brief, the assay is started by substitution of the culture medium by stimulation buffer (Hepes 10 mM, CaCl2 1 mM, MgCl2 0.5 mM, KCl 4.2 mM, NaCl 146 mM, glucose 5.5 mM and LiCl 50 mM, pH 7.4). Cells are stimulated for 1 h at 37° C., 5% CO2 by addition of the compounds that are diluted in stimulation buffer containing LiCl. Assays are stopped by adding HTRF-conjugates (IP1-d2 and Anti-IP1 cryptate Tb) and lysis buffer, provided by the manufacturer. After an incubation time of 1 h at room temperature plates are measured using an EnVision™, Perkin Elmer. The obtained fluorescence ratios at 665/615 […] are then used to calculate the pEC50 values using Assay Explorer 3.3 Software (Accelrys, Inc.) by interpolation using an IP1 reference curve and subsequent sigmoidal curve fitting allowing for a variable hill slope.

[1] = Aqueous solubility (buffer vs acetonitrile/water, LC-UV); assay type: physicochemical; settings: for solubility at 24 h: aqueous buffer, kinetic from dmso stock
Method: The aqueous solubility of the compounds of the invention is determined by comparing the amount dissolved in buffer to the amount in an acetonitrile/water (1/1) solution. Starting from a 10 mM DMSO stock solution aliquots are diluted with acetonitrile/water (1/1) or buffer, respectively. After 24 h of shaking, the solutions are filtrated and analyzed by LC-UV. The amount dissolved in buffer is compared to the amount in the acetonitrile solution.

[2] = pH 2.2 buffer, 24 h shaking, 2.5% DMSO, reference examples of WO 2013/178575
[3] = pH 2.2 buffer, 24 h shaking, 2.5% DMSO, examples in this invention

Sequence of human GPR40 receptor (O14842 whole entry): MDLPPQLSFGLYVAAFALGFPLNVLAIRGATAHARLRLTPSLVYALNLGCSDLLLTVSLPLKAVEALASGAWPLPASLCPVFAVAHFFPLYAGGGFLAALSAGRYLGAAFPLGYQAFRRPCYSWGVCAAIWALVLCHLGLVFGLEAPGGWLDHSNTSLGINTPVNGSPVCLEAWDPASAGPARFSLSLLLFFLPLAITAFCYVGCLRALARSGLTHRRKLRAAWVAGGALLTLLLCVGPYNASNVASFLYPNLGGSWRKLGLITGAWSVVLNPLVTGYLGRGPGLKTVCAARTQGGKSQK

Cc1ccc(Cl)c(-c2ccc(F)c(CNc3ccc([C@H]4C[C@@H]4C(=O)O)nc3)c2)c1Cl [Example 36]
EC50 (human GPR40 receptor): 0.035 µM
Solubility at pH value 2.2 ([1]; pH 2.2): 43 μg/mL

Cc1cc(OCCC(C)(C)O)cc(C)c1-c1ccc(F)c(CNc2ccc([C@H]3C[C@@H]3C(=O)O)nc2)c1 [Example 19]
EC50 (human GPR40 receptor): 0.027 µM
Solubility at pH value 2.2 ([1]; pH 2.2): 81 μg/mL

COc1cc(OC)c(Cl)c(-c2ccc(F)c(CNc3ccc([C@H]4C[C@@H]4C(=O)O)nc3)c2)c1Cl [Example 28]
EC50 (human GPR40 receptor): 0.03 µM
Solubility at pH value 2.2 ([1]; pH 2.2): 18 μg/mL

Cc1cc(OCC(C)(C)O)cc(C)c1-c1ccc(F)c(CNc2ccc([C@H]3C[C@@H]3C(=O)O)nc2)c1 [Example 21]
EC50 (human GPR40 receptor): 0.101 µM
Solubility at pH value 2.2 ([1]; pH 2.2): 82 μg/mL

Cc1cc(OCC2(O)CCSCC2)cc(C)c1-c1ccc(F)c(CNc2ccc([C@H]3C[C@@H]3C(=O)O)nc2)c1 [Example 48]
EC50 (human GPR40 receptor): 0.056 µM
Solubility at pH value 2.2 ([1]; pH 2.2): 67 μg/mL

Cc1cc(-c2nnn(C)n2)cc(C)c1-c1ccc(F)c2c1CC[C@H]2Oc1ccc([C@H]2C[C@@H]2C(=O)O)cc1 [WO 2013/178575 Example 45, reference compound]
solubility at 24 h [1, 2]: < 1 µg/mL

Cc1cc(OCC2CCOCC2)cc(C)c1-c1ccc(F)c(CNc2ccc([C@H]3C[C@@H]3C(=O)O)nc2)c1 [Example 44]
EC50 (human GPR40 receptor): 0.018 µM
Solubility at pH value 2.2 ([1]; pH 2.2): 66 μg/mL

COc1cc(-c2cc(C)c(-c3ccc(F)c(CNc4ccc([C@H]5C[C@@H]5C(=O)O)nc4)c3)c(C)c2)ccn1 [Example 47]
EC50 (human GPR40 receptor): 0.005 µM
Solubility at pH value 2.2 ([1]; pH 2.2): 57 μg/mL

O=C(O)[C@H]1C[C@@H]1c1ccc(NCc2cc(-c3c(F)cc(OC4CC4)cc3F)ccc2F)cn1 [Example 33]
EC50 (human GPR40 receptor): 0.297 µM
Solubility at pH value 2.2 ([1]; pH 2.2): 53 μg/mL

Cc1cc(C(=O)NCC(C)(C)O)cc(C)c1-c1ccc(F)c2c1CC[C@H]2Oc1ccc([C@H]2C[C@@H]2C(=O)O)cc1 [WO 2013/178575 Example 15, reference compound]
solubility at 24 h [1, 2]: < 1 µg/mL

Cc1cc(-c2cc(=O)n(C)cn2)cc(C)c1-c1ccc(F)c(CNc2ccc([C@H]3C[C@@H]3C(=O)O)nc2)c1 [Example 18]
EC50 (human GPR40 receptor): 0.023 µM
Solubility at pH value 2.2 ([1]; pH 2.2): 72 μg/mL

Cc1c(C#N)cccc1-c1ccc(F)c2c1CC[C@H]2Oc1ccc([C@H]2C[C@@H]2C(=O)O)cc1 [WO 2013/178575 Example 54, reference compound]
solubility at 24 h [1, 2]: < 1 µg/mL

Cc1cc(OCC2CCOC2)cc(C)c1-c1ccc(F)c(CNc2ccc([C@H]3C[C@@H]3C(=O)O)nc2)c1 (stereo partly drawn) [Example 26]
EC50 (human GPR40 receptor): 0.039 µM
Solubility at pH value 2.2 ([1]; pH 2.2): 70 μg/mL

COc1cc(F)c(-c2ccc(F)c(CNc3ccc([C@H]4C[C@@H]4C(=O)O)nc3)c2)c(F)c1 [Example 40]
EC50 (human GPR40 receptor): 0.988 µM
Solubility at pH value 2.2 ([1]; pH 2.2): 62 μg/mL

Cc1cnc(-c2cc(C)c(-c3ccc(F)c(CNc4ccc([C@H]5C[C@@H]5C(=O)O)nc4)c3)c(C)c2)nc1 [Example 51]
EC50 (human GPR40 receptor): 0.006 µM
Solubility at pH value 2.2 [1, 3]: 58 μg/mL

CCc1cccc(CC)c1-c1ccc(F)c(CNc2ccc([C@H]3C[C@@H]3C(=O)O)nc2)c1 [Example 53]
EC50 (human GPR40 receptor): 0.057 µM
Solubility at pH value 2.2 [1, 3]: 50 μg/mL

Cc1cc(OC2CCOCC2)cc(C)c1-c1ccc(F)c(CNc2ccc([C@H]3C[C@@H]3C(=O)O)nc2)c1 [Example 20]
EC50 (human GPR40 receptor): 0.035 µM
Solubility at pH value 2.2 ([1]; pH 2.2): 66 μg/mL

O=C(O)[C@H]1C[C@@H]1c1ccc(NCc2ccc(C(F)(F)F)c(-c3ccc(OC(F)(F)F)cc3)c2)cn1 [Example 4, (1S,2S)-2-{5-[(4′-Trifluoromethoxy-6-trifluoromethyl-biphenyl-3-ylmethyl)-amino]-pyridin-2-yl}-cyclopropanecarboxylic acid]
EC50 (human GPR40 receptor): 0.044 µM
solubility at 24 h [1, 3]: 14 µg/mL (≈ 28.2 µM)

O=C(O)[C@H]1C[C@@H]1c1ccc(NCc2ccc(C(F)(F)F)c(-c3ccc(OCC4CC4)cc3)c2)cn1 [Example 3, (1S,2S)-2-{5-[(4′-Cyclopropylmethoxy-6-trifluoromethyl-biphenyl-3-ylmethyl)-amino]-pyridin-2-yl}-cyclopropanecarboxylic acid]
EC50 (human GPR40 receptor): 0.022 µM
solubility at 24 h [1, 3]: 22 µg/mL (≈ 45.6 µM)

Cc1cc(-c2nnn(CC(C)(C)O)n2)cc(C)c1-c1ccc(F)c(CNc2ccc([C@H]3C[C@@H]3C(=O)O)nc2)c1 [Example 54]
EC50 (human GPR40 receptor): 0.01 µM
Solubility at pH value 2.2 ([1]; pH 2.2): 81 μg/mL

Cc1cc(-c2ccnn2C)cc(C)c1-c1ccc(F)c(CNc2ccc([C@H]3C[C@@H]3C(=O)O)nc2)c1 [Example 55]
EC50 (human GPR40 receptor): 0.012 µM
Solubility at pH value 2.2 ([1]; pH 2.2): 53 μg/mL

CNC(=O)c1cc(C)c(-c2ccc(F)c(CNc3ccc([C@H]4C[C@@H]4C(=O)O)nc3)c2)c(C)c1 [Example 43]
EC50 (human GPR40 receptor): 0.358 µM
Solubility at pH value 2.2 ([1]; pH 2.2): 84 μg/mL

Cc1cc(OCC(=O)O)cc(C)c1-c1ccc(F)c(CNc2ccc([C@H]3C[C@@H]3C(=O)O)nc2)c1 [Example 14]
EC50 (human GPR40 receptor): 4.52 µM
Solubility at pH value 2.2 ([1]; pH 2.2): 71 μg/mL

CC(C)c1ccccc1-c1ccc(F)c(CNc2ccc([C@H]3C[C@@H]3C(=O)O)nc2)c1 [Example 50]
EC50 (human GPR40 receptor): 0.081 µM
Solubility at pH value 2.2 [1, 3]: 48 μg/mL

Cc1cc(OCCC(C)(C)O)cc(C)c1-c1ccc(F)c2c1CC[C@H]2Oc1ccc([C@H]2C[C@@H]2C(=O)O)cc1 [WO 2013/178575 Example 17, reference compound]
solubility at 24 h [1, 2]: < 1 µg/mL

Cc1cc(OCC2(O)CCS(=O)(=O)CC2)cc(C)c1-c1ccc(F)c(CNc2ccc([C@H]3C[C@@H]3C(=O)O)nc2)c1 [Example 46]
EC50 (human GPR40 receptor): 0.171 µM
Solubility at pH value 2.2 ([1]; pH 2.2): 102 μg/mL

Cc1cc(-c2ccn(C)c(=O)c2)cc(C)c1-c1ccc(F)c(CNc2ccc([C@H]3C[C@@H]3C(=O)O)nc2)c1 [Example 16]
EC50 (human GPR40 receptor): 0.029 µM
Solubility at pH value 2.2 ([1]; pH 2.2): 79 μg/mL

Cc1cc(OCCC(C)(C)O)cc(C)c1-c1cc(CNc2ccc([C@H]3C[C@@H]3C(=O)O)nc2)ccc1C(F)(F)F [Example 5]
EC50 (human GPR40 receptor): 0.012 µM
solubility at 24 h [1, 3]: < 1 µg/mL

COc1cc(OC)c(F)c(-c2ccc(F)c(CNc3ccc([C@H]4C[C@@H]4C(=O)O)nc3)c2)c1F [Example 52]
EC50 (human GPR40 receptor): 0.836 µM
Solubility at pH value 2.2 ([1]; pH 2.2): 62 μg/mL

O=C(O)[C@H]1C[C@@H]1c1ccc(NCc2cc(-c3ccc(O)c(Cl)c3)c(F)cc2F)cn1 [Example 9, (1S,2S)-2-{5-[(3′-Chloro-4,6-difluoro-4′-hydroxy-biphenyl-3-ylmethyl)-amino]-pyridin-2-yl}-cyclopropanecarboxylic acid]
EC50 (human GPR40 receptor): 0.943 µM
solubility at 24 h [1, 3]: 58 µg/mL (≈ 135 µM)

Cc1cc(CO)cc(C)c1-c1ccc(F)c(CNc2ccc([C@H]3C[C@@H]3C(=O)O)nc2)c1 [Example 22]
EC50 (human GPR40 receptor): 0.206 µM
Solubility at pH value 2.2 ([1]; pH 2.2): 48 μg/mL

Cc1cc(C(=O)O)cc(C)c1-c1ccc(F)c(CNc2ccc([C@H]3C[C@@H]3C(=O)O)nc2)c1 [Example 45]
EC50 (human GPR40 receptor): 3.66 µM
Solubility at pH value 2.2 ([1]; pH 2.2): 69 μg/mL

COc1c(F)cc(-c2cc(CNc3ccc([C@H]4C[C@@H]4C(=O)O)nc3)c(F)cc2F)cc1F [Example 10, (1S,2S)-2-{5-[(4,6,3′,5′-Tetrafluoro-4′-methoxy-biphenyl-3-ylmethyl)-amino]-pyridin-2-yl}-cyclopropanecarboxylic acid]
EC50 (human GPR40 receptor): 0.052 µM
solubility at 24 h [1, 3]: 61 µg/mL (≈ 137 µM)

Cc1cc(O[C@@H]2CCOC2)cc(C)c1-c1ccc(F)c(CNc2ccc([C@H]3C[C@@H]3C(=O)O)nc2)c1 [Example 24]
EC50 (human GPR40 receptor): 0.044 µM
Solubility at pH value 2.2 ([1]; pH 2.2): 64 μg/mL

Cc1cc(OCC2(O)CCOCC2)cc(C)c1-c1ccc(F)c(CNc2ccc([C@H]3C[C@@H]3C(=O)O)nc2)c1 [Example 49]
EC50 (human GPR40 receptor): 0.147 µM
Solubility at pH value 2.2 ([1]; pH 2.2): 83 μg/mL

Cc1cc(N)ccc1-c1cc(CNc2ccc([C@H]3C[C@@H]3C(=O)O)nc2)c(F)cc1F [Example 8, (1S,2S)-2-{5-[(4′-Amino-4,6-difluoro-2′-methyl-biphenyl-3-ylmethyl)-amino]-pyridin-2-yl}-cyclopropanecarboxylic acid]
EC50 (human GPR40 receptor): 0.127 µM
solubility at 24 h [1, 3]: > 96 µg/mL

Cc1cc(C#N)cc(C)c1-c1ccc(F)c(CNc2ccc([C@H]3C[C@@H]3C(=O)O)nc2)c1 [Example 57]
EC50 (human GPR40 receptor): 0.091 µM
Solubility at pH value 2.2 ([1]; pH 2.2): 59 μg/mL

Cc1cc(-c2ccn(C)c(=O)n2)cc(C)c1-c1ccc(F)c(CNc2ccc([C@H]3C[C@@H]3C(=O)O)nc2)c1 [Example 56]
EC50 (human GPR40 receptor): 0.032 µM
Solubility at pH value 2.2 [1, 3]: 86 μg/mL

Cc1cc(OCc2ccccc2)cc(C)c1-c1ccc(F)c(CNc2ccc([C@H]3C[C@@H]3C(=O)O)nc2)c1 [Example 12]
EC50 (human GPR40 receptor): 0.044 µM
Solubility at pH value 2.2 ([1]; pH 2.2): 27 μg/mL

O=C(O)[C@H]1C[C@@H]1c1ccc(NCc2cc(-c3ccccc3C(F)(F)F)ccc2F)cn1 [Example 37]
EC50 (human GPR40 receptor): 0.038 µM
Solubility at pH value 2.2 ([1]; pH 2.2): 68 μg/mL

COc1cc(OC)c(-c2ccc(F)c(CNc3ccc([C@H]4C[C@@H]4C(=O)O)nc3)c2)c(OC)c1 [Example 31]
EC50 (human GPR40 receptor): 0.453 µM
Solubility at pH value 2.2 ([1]; pH 2.2): 88 μg/mL
